The target of one test is T1, 5HT2C receptor (Homo sapiens, UniProt P28335).
T1 sequence (P28335 33-458): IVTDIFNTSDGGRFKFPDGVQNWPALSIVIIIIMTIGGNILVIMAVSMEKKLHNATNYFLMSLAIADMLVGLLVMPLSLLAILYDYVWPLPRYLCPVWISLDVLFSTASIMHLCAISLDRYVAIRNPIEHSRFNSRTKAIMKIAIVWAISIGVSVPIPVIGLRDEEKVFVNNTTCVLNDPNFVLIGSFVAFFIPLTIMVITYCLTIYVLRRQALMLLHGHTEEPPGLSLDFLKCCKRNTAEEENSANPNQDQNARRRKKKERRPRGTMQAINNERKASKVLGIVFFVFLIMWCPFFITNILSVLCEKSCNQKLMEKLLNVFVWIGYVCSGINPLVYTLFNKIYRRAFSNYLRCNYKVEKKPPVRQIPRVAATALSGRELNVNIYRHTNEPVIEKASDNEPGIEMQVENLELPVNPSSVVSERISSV
The test can be described thus: NIMH-PDSP radioligand binding, 5HT2C.

The target in another test is D2 receptor (Homo sapiens, UniProt P14416). The test is described as follows: NIMH-PDSP radioligand binding, D2. The note with it: compound 15 as the template.
In the next test the target is T2, D4 receptor (Homo sapiens, UniProt P21917).
T2 sequence (P21917 1-419): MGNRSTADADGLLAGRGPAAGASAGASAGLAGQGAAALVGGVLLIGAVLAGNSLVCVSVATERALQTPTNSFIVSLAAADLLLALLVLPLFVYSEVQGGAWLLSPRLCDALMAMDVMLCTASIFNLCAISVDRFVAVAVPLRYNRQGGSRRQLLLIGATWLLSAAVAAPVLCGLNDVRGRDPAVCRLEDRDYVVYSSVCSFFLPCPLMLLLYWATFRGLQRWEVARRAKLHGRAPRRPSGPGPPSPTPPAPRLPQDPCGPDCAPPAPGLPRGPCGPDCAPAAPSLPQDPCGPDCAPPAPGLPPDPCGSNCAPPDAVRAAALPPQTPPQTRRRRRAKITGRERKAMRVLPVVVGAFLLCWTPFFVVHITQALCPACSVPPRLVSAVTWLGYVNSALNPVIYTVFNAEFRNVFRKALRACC
The test can be described thus: NIMH-PDSP radioligand binding, D4. To be noted: compared to the methylene analog (so in the source).

A further test addresses T3, 5HT1A receptor (Homo sapiens, UniProt P08908).
T3 sequence (P08908 1-422): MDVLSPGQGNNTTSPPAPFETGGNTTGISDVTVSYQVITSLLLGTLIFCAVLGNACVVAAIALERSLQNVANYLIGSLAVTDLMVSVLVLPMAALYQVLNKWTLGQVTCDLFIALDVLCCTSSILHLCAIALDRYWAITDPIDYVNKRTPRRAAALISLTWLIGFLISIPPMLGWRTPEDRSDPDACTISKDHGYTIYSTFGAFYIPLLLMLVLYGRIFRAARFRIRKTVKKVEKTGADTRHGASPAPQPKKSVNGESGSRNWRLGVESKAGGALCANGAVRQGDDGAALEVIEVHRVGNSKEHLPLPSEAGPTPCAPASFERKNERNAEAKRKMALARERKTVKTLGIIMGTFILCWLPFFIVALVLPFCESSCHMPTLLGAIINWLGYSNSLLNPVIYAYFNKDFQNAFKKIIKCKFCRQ
The test can be described thus: NIMH-PDSP radioligand binding, 5HT1A. To be noted: compound 15 as the template.

The term pKi denotes −log10 of the Ki, conventionally taken in molar units.

pKi: −log10 of the molar value. Counter-ions that a name gives are not always drawn. Where only a bound is given, the exact number is not on record here.

Chain of D2 receptor (P14416 whole entry): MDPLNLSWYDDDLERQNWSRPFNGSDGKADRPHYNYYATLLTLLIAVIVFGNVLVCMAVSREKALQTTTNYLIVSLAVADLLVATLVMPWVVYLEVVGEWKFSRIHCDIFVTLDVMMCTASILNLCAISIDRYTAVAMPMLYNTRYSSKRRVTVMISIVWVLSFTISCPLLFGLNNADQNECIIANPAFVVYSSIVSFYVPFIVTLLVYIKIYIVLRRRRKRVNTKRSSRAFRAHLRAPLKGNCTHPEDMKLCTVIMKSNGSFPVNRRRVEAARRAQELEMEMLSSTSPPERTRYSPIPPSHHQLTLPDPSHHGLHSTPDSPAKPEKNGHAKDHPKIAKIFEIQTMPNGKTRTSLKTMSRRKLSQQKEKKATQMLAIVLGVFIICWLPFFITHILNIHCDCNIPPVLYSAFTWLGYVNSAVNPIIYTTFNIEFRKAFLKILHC

As to `Fc1ccc(SCCCN2CCC(c3ccc(Cl)cc3)CC2)cc1` [Compound 8, 4-(4-Chlorophenyl)-1-(3-((4-fluorophenyl)thio)propyl)piperidine hydrochloride], the negative-log Ki (pKi) at 5HT2C receptor is less than 5.00.
The same measure, in the same setting: as for `Fc1ccc(OCCCN2CCC(c3ccc(Cl)cc3)CC2)cc1` [Compound 9, 4-(4-Chlorophenyl)-1-(3-(4-fluorophenoxy)propyl)piperidine], the figure is less than 5.00.
On to `Fc1ccc(OCCCN2CCN(c3ccccc3)CC2)cc1` [Compound 16, 1-(3-(4-Fluorophenoxy)propyl)-4-phenylpiperazine], for which, at D2 receptor, the “increase in binding at the D2 receptor” value is recorded as “over 10 fold”.
As to `OC1(c2ccc(Cl)cc2)CCN(CCCOc2ccc(F)cc2)CC1` [Compound 7, 4-(4-Chloro-phenyl)-1-[3-(4-fluoro-phenoxy)-propyl]-piperidin-4-ol], the “increase in binding at the D4 receptor” value on D4 receptor is given as “over 4 fold”.
In the case of `[O-][S+](CCCN1CCC(c2ccc(Cl)cc2)CC1)c1ccc(F)cc1` (centres unmarked) [Compound 10, 4-(4-Chlorophenyl)-1-(3-((4-fluorophenyl)sulfinyl)propyl)piperidine HCl], the pKi on 5HT2C receptor was less than 5.00.
Consider `Clc1ccc(N2CCN(CCCOc3ccccc3)CC2)cc1` [Compound 17, 1-(4-Chlorophenyl)-4-(3-phenoxypropyl)piperazine HCl], for which the “binding increased by a factor, 5HT1A receptor” value on 5HT1A receptor is on record as 3.
In the case of `OC1(c2ccc(Cl)cc2)CCN(CCCSc2ccc(F)cc2)CC1` [Compound 6, 4-(4-chlorophenyl)-1-(3-((4-fluorophenyl)thio)propyl)piperidin-4-ol], at D4 receptor, the “decrease in binding at the D4 receptor” value is listed as “over 24 fold”.
Compound `Fc1ccc(OCCCN2CCN(c3ncccn3)CC2)cc1` [Compound 22, 2-(4-(3-(4-Fluorophenoxy)propyl)piperazin-1-yl)pyrimidine] gave a pKi at 5HT2C receptor of less than 5.00.

The record behind these values is PMC3267002 (Bioorganic & medicinal chemistry, 2011).
